Data reported in patent US9738634B2, “Heterocyclic amide compound and herbicide” (SYNGENTA PARTICIPATIONS AG, priority 2013, dated 2017).

Legend:
Format in all cases: in vivo
Details in all cases: treatment dosage 320 g/ha
barnyard grass [1] = test: Test Example 1: weedkilling efficacy, preemergent weed treatment in the submerged state; A: barnyard grass
Summary of the method: (§1)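 Emulsion diluted with water to the specified per-hectare dosage is applied onto flood water (4 cm) over alluvial soil on the sowing day, with barnyard grass, bulrush and pondweed seeded and rice (2.5-leaf) transplanted; plants grow at 25–30 °C and are rated at 3 weeks.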

bulrush [2] = test: Test Example 1: weedkilling efficacy, preemergent weed treatment in the submerged state; B: bulrush
Summary of the method: as §1

oval-leafed pondweed [3] = test: Test Example 1: weedkilling efficacy, preemergent weed treatment in the submerged state; C: oval-leafed pondweed
Summary of the method: as §1

transplanted rice = test: Test Example 1: preemergent weed treatment in the submerged state, effect on crop; a: transplanted rice
Summary of the method: as §1

barnyard grass [4] = test: Test Example 2: weedkilling efficacy, growth period weed treatment in the submerged state; A: barnyard grass
Summary of the method: (§2)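 First, alluvial soil in pots is flooded to 4 cm and mixed seed is sown. Next, plants grow in a greenhouse at 25 to 30° C until the 1-2 leaf stage. Then diluted emulsion is applied onto the water surface at the given g/ha rate, and injury is assessed after 3 weeks.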

bulrush [5] = test: Test Example 2: weedkilling efficacy, growth period weed treatment in the submerged state; B: bulrush
Summary of the method: as §2

oval-leafed pondweed [6] = test: Test Example 2: weedkilling efficacy, growth period weed treatment in the submerged state; C: oval-leafed pondweed
Summary of the method: as §2

crabgrass [7] = test: Test Example 3: weedkilling efficacy through soil treatment; D: crabgrass
Summary of the method: (§3)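 Crop and weed responses were judged three weeks after a uniform surface spray of the water-diluted emulsion at the given g/ha rate. Seeds sat beneath about 1.5 cm of sterilized diluvial soil, and boxes stood in a greenhouse at 25 to 30° C.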

green foxtail [8] = test: Test Example 3: weedkilling efficacy through soil treatment; E: green foxtail
Summary of the method: as §3

barnyard grass [9] = test: Test Example 3: weedkilling efficacy through soil treatment; F: barnyard grass
Summary of the method: as §3

wild oat [10] = test: Test Example 3: weedkilling efficacy through soil treatment; G: wild oat
Summary of the method: as §3

black-grass [11] = test: Test Example 3: weedkilling efficacy through soil treatment; H: black-grass
Summary of the method: as §3

Italian ryegrass [12] = test: Test Example 3: weedkilling efficacy through soil treatment; I: Italian ryegrass
Summary of the method: as §3

common wind-grass [13] = test: Test Example 3: weedkilling efficacy through soil treatment; J: common wind-grass
Summary of the method: as §3

Indian mallow [14] = test: Test Example 3: weedkilling efficacy through soil treatment; K: Indian mallow
Summary of the method: as §3

redroot pigweed [15] = test: Test Example 3: weedkilling efficacy through soil treatment; L: redroot pigweed
Summary of the method: as §3

fig-leafed goosefoot [16] = test: Test Example 3: weedkilling efficacy through soil treatment; M: fig-leafed goosefoot
Summary of the method: as §3

chickweed [17] = test: Test Example 3: weedkilling efficacy through soil treatment; N: chickweed
Summary of the method: as §3

catchweed [18] = test: Test Example 3: weedkilling efficacy through soil treatment; O: catchweed
Summary of the method: as §3

birds-eye speedwell [19] = test: Test Example 3: weedkilling efficacy through soil treatment; p: birds-eye speedwell
Summary of the method: as §3

directly sown rice [20] = test: Test Example 3: soil treatment, effect on crop; b: directly sown rice
Summary of the method: as §3

corn [21] = test: Test Example 3: soil treatment, effect on crop; c: corn
Summary of the method: as §3

soybean [22] = test: Test Example 3: soil treatment, effect on crop; d: soybean
Summary of the method: as §3

wheat [23] = test: Test Example 3: soil treatment, effect on crop; e: wheat
Summary of the method: as §3

beet [24] = test: Test Example 3: soil treatment, effect on crop; f: beet
Summary of the method: as §3

rapeseed [25] = test: Test Example 3: soil treatment, effect on crop; g: rapeseed
Summary of the method: as §3

crabgrass [26] = test: Test Example 4: weedkilling efficacy by foliar treatment; D: crabgrass
Summary of the method: (§4)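 Seeds are spot-sown into sterilized diluvial soil and covered with about 1.5 cm of soil. After 14 days' greenhouse growth at 25 to 30° C, plants are sprayed on stems and leaves with diluted emulsion at the stated g/ha rate, then scored at 3 weeks.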

green foxtail [27] = test: Test Example 4: weedkilling efficacy by foliar treatment; E: green foxtail
Summary of the method: as §4

barnyard grass [28] = test: Test Example 4: weedkilling efficacy by foliar treatment; F: barnyard grass
Summary of the method: as §4

wild oat [29] = test: Test Example 4: weedkilling efficacy by foliar treatment; G: wild oat
Summary of the method: as §4

black-grass [30] = test: Test Example 4: weedkilling efficacy by foliar treatment; H: black-grass
Summary of the method: as §4

Italian ryegrass [31] = test: Test Example 4: weedkilling efficacy by foliar treatment; I: Italian ryegrass
Summary of the method: as §4

common wind-grass [32] = test: Test Example 4: weedkilling efficacy by foliar treatment; J: common wind-grass
Summary of the method: as §4

Indian mallow [33] = test: Test Example 4: weedkilling efficacy by foliar treatment; K: Indian mallow
Summary of the method: as §4

redroot pigweed [34] = test: Test Example 4: weedkilling efficacy by foliar treatment; L: redroot pigweed
Summary of the method: as §4

fig-leafed goosefoot [35] = test: Test Example 4: weedkilling efficacy by foliar treatment; M: fig-leafed goosefoot
Summary of the method: as §4

chickweed [36] = test: Test Example 4: weedkilling efficacy by foliar treatment; N: chickweed
Summary of the method: as §4

catchweed [37] = test: Test Example 4: weedkilling efficacy by foliar treatment; O: catchweed
Summary of the method: as §4

birds-eye speedwell [38] = test: Test Example 4: weedkilling efficacy by foliar treatment; p: birds-eye speedwell
Summary of the method: as §4

directly sown rice [39] = test: Test Example 4: foliar treatment, effect on crop; b: directly sown rice
Summary of the method: as §4

corn [40] = test: Test Example 4: foliar treatment, effect on crop; c: corn
Summary of the method: as §4

soybean [41] = test: Test Example 4: foliar treatment, effect on crop; d: soybean
Summary of the method: as §4

wheat [42] = test: Test Example 4: foliar treatment, effect on crop; e: wheat
Summary of the method: as §4

beet [43] = test: Test Example 4: foliar treatment, effect on crop; f: beet
Summary of the method: as §4

rapeseed [44] = test: Test Example 4: foliar treatment, effect on crop; g: rapeseed
Summary of the method: as §4

`CC1=C(c2ccccc2)C(=O)N(C(C)(C)C(=O)Nc2cc(C)cc(F)n2)CO1` [B-2-38] was tested, and the “A (barnyard grass) weedkilling efficacy grade” value (barnyard grass [1]) was 5 (weed kill ratio 90% or more, (practically complete withering)), the “B (bulrush) weedkilling efficacy grade” value (bulrush [2]) was 5 (weed kill ratio 90% or more, (practically complete withering)) and the “C (oval-leafed pondweed) weedkilling efficacy grade” value (oval-leafed pondweed [3]) was 5 (weed kill ratio 90% or more, (practically complete withering)). The “a (transplanted rice) effect on crop grade” value (transplanted rice) was 3 (weed kill ratio 40% or more, less than 70%), the “A (barnyard grass) weedkilling efficacy grade” value (barnyard grass [4]) was 5 (weed kill ratio 90% or more, (practically complete withering)) and the “B (bulrush) weedkilling efficacy grade” value (bulrush [5]) was 5 (weed kill ratio 90% or more, (practically complete withering)). For the same molecule, the “C (oval-leafed pondweed) weedkilling efficacy grade” value (oval-leafed pondweed [6]) was 5 (weed kill ratio 90% or more, (practically complete withering)), the “D (crabgrass) weedkilling efficacy grade” value (crabgrass [7]) was 5 (weed kill ratio 90% or more, (practically complete withering)) and the “E (green foxtail) weedkilling efficacy grade” value (green foxtail [8]) was 5 (weed kill ratio 90% or more, (practically complete withering)). The “F (barnyard grass) weedkilling efficacy grade” value (barnyard grass [9]) was 5 (weed kill ratio 90% or more, (practically complete withering)), the “G (wild oat) weedkilling efficacy grade” value (wild oat [10]) was 5 (weed kill ratio 90% or more, (practically complete withering)) and the “H (black-grass) weedkilling efficacy grade” value (black-grass [11]) was 5 (weed kill ratio 90% or more, (practically complete withering)). The “I (Italian ryegrass) weedkilling efficacy grade” value (Italian ryegrass [12]) was 5 (weed kill ratio 90% or more, (practically complete withering)), the “J (common wind-grass) weedkilling efficacy grade” value (common wind-grass [13]) was 5 (weed kill ratio 90% or more, (practically complete withering)) and the “K (Indian mallow) weedkilling efficacy grade” value (Indian mallow [14]) was 1 (weed kill ratio 5% or more, less than 20%). For the same molecule, the “L (redroot pigweed) weedkilling efficacy grade” value (redroot pigweed [15]) was 3 (weed kill ratio 40% or more, less than 70%), the “M (fig-leafed goosefoot) weedkilling efficacy grade” value (fig-leafed goosefoot [16]) was 4 (weed kill ratio 70% or more, less than 90%) and the “N (chickweed) weedkilling efficacy grade” value (chickweed [17]) was 4 (weed kill ratio 70% or more, less than 90%). The “O (catchweed) weedkilling efficacy grade” value (catchweed [18]) was 5 (weed kill ratio 90% or more, (practically complete withering)), the “P (birds-eye speedwell) weedkilling efficacy grade” value (birds-eye speedwell [19]) was 5 (weed kill ratio 90% or more, (practically complete withering)) and the “b (directly sown rice) effect on crop grade” value (directly sown rice [20]) was 5 (weed kill ratio 90% or more, (practically complete withering)). For the same molecule, the “c (corn) effect on crop grade” value (corn [21]) was 1 (weed kill ratio 5% or more, less than 20%), the “d (soybean) effect on crop grade” value (soybean [22]) was 4 (weed kill ratio 70% or more, less than 90%) and the “e (wheat) effect on crop grade” value (wheat [23]) was 0 (weed kill ratio 5% or less (practically no effect)). The “f (beet) effect on crop grade” value (beet [24]) was 4 (weed kill ratio 70% or more, less than 90%), the “g (rapeseed) effect on crop grade” value (rapeseed [25]) was 4 (weed kill ratio 70% or more, less than 90%) and the “D (crabgrass) weedkilling efficacy grade” value (crabgrass [26]) was 5 (weed kill ratio 90% or more, (practically complete withering)). For the same molecule, the “E (green foxtail) weedkilling efficacy grade” value (green foxtail [27]) was 5 (weed kill ratio 90% or more, (practically complete withering)), the “F (barnyard grass) weedkilling efficacy grade” value (barnyard grass [28]) was 5 (weed kill ratio 90% or more, (practically complete withering)) and the “G (wild oat) weedkilling efficacy grade” value (wild oat [29]) was 5 (weed kill ratio 90% or more, (practically complete withering)). For the same molecule, the “H (black-grass) weedkilling efficacy grade” value (black-grass [30]) was 5 (weed kill ratio 90% or more, (practically complete withering)), the “I (Italian ryegrass) weedkilling efficacy grade” value (Italian ryegrass [31]) was 5 (weed kill ratio 90% or more, (practically complete withering)) and the “J (common wind-grass) weedkilling efficacy grade” value (common wind-grass [32]) was 5 (weed kill ratio 90% or more, (practically complete withering)). For the same molecule, the “K (Indian mallow) weedkilling efficacy grade” value (Indian mallow [33]) was 4 (weed kill ratio 70% or more, less than 90%), the “L (redroot pigweed) weedkilling efficacy grade” value (redroot pigweed [34]) was 4 (weed kill ratio 70% or more, less than 90%) and the “M (fig-leafed goosefoot) weedkilling efficacy grade” value (fig-leafed goosefoot [35]) was 4 (weed kill ratio 70% or more, less than 90%). The “N (chickweed) weedkilling efficacy grade” value (chickweed [36]) was 4 (weed kill ratio 70% or more, less than 90%), the “O (catchweed) weedkilling efficacy grade” value (catchweed [37]) was 4 (weed kill ratio 70% or more, less than 90%) and the “P (birds-eye speedwell) weedkilling efficacy grade” value (birds-eye speedwell [38]) was 4 (weed kill ratio 70% or more, less than 90%). The “b (directly sown rice) effect on crop grade” value (directly sown rice [39]) was 5 (weed kill ratio 90% or more, (practically complete withering)), the “c (corn) effect on crop grade” value (corn [40]) was 5 (weed kill ratio 90% or more, (practically complete withering)) and the “d (soybean) effect on crop grade” value (soybean [41]) was 4 (weed kill ratio 70% or more, less than 90%). For the same molecule, the “e (wheat) effect on crop grade” value (wheat [42]) was 1 (weed kill ratio 5% or more, less than 20%), the “f (beet) effect on crop grade” value (beet [43]) was 4 (weed kill ratio 70% or more, less than 90%) and the “g (rapeseed) effect on crop grade” value (rapeseed [44]) was 4 (weed kill ratio 70% or more, less than 90%).
